Measured values reported in US11414424B2, “Cardiac sarcomere inhibitors” (Cytokinetics, Inc., priority 2018, dated 2022).

Test system: bovine cardiac myofibrils
Test: Myofibril assay: PK/LDH-coupled steady-state ATPase activity of skinned bovine cardiac myofibrils
Type: biochemical
Conditions: Ca2+ activating to 75% of maximal rate
Summary of the method: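 Steady-state ATPase of detergent-skinned bovine left-ventricular myofibrils (1 mg/mL), PK/LDH-coupled NADH read at 340 nm, in PIPES/MgCl2 buffer pH 6.8 with 50 μM ATP, 0.6 mM EGTA and CaCl2 set for 50% or 75% activation. Inhibition of activity measured.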

SMILES	CDMF75 IC15 [nM]
O=C1CN(c2ncc(Cl)cc2F)C(=O)C2(COC2)N1Cc1ccc(C(F)F)cc1 [Compound 768, 8-(5-chloro-3-fluoropyridin-2-yl)-5-(4-(difluoromethyl)-benzyl)-2-oxa-5,8-diazaspiro[3.5]nonane-6,9-dione]	4300
COc1cnc(N2CC(=O)N(Cc3ccc(Cl)cc3)C(C3COC3)C2=O)c(F)c1 (stereo not drawn) [Compound 769, 4-(4-chlorobenzyl)-1-(3-fluoro-5-methoxypyridin-2-yl)-3-(oxetan-3-yl)-piperazine-2,5-dione]	7900
COc1cnc(N2CC(=O)N(Cc3ccc(Cl)c(F)c3)C(C3COC3)C2=O)c(F)c1 (stereo not drawn) [Compound 772, 4-(4-chloro-3-fluoro-benzyl)-1-(3-fluoro-5-methoxypyridin-2-yl)-3-(oxetan-3-yl)piperazine-2,5-dione]	7700
COc1cnc(N2CC(=O)N(Cc3ccc(F)c(Cl)c3)C(C3COC3)C2=O)c(F)c1 (stereo not drawn) [Compound 775, 4-(3-chloro-4-fluoro-benzyl)-1-(3-fluoro-5-methoxypyridin-2-yl)-3-(oxetan-3-yl)piperazine-2,5-dione]	8000
COC(=O)C12CC(C3C(=O)N(c4ncc(Cl)cc4F)CC(=O)N3Cc3ccc(C(F)(F)F)cc3)(C1)C2 (stereo not drawn) [Compound 778, methyl 3-(4-(5-chloro-3-fluoropyridin-2-yl)-3,6-dioxo-1-(4-(trifluoro-methyl)benzyl)piperazin-2-yl)bicydo[1.1.1]pentane-1-carboxylate]	2400
COC(=O)C12CC(C3C(=O)N(c4ncc(Cl)cc4F)CC(=O)N3Cc3ccc(C(F)F)cc3)(C1)C2 (stereo not drawn) [Compound 779, methyl 3-(4-(5-chloro-3-fluoropyridin-2-yl)-1-(4-(difluoromethyl)benzyl)-3,6-dioxopiperazin-2-yl)bicyclo[1.1.1]pentane-1-carboxylate]	2900
COC(=O)C12CC(C3C(=O)N(c4ncc(Cl)cc4F)CC(=O)N3Cc3ccc(F)cc3)(C1)C2 (stereo not drawn) [Compound 780, methyl 3-(4-(5-chloro-3-fluoropyridin-2-yl)-1-(4-fluorobenzyl)-3,6-dioxopiperazin-2-yl)bicyclo[1.1.1]pentane-1-carboxylate]	3600
COC(=O)C12CC(C3C(=O)N(c4ncc(Cl)cc4F)CC(=O)N3Cc3ccc(C)cc3)(C1)C2 (stereo not drawn) [Compound 781, methyl 3-(4-(5-chloro-3-fluoropyridin-2-yl)-1-(4-methylbenzyl)-3,6-dioxopiperazin-2-yl)bicyclo[1.1.1]pentane-1-carboxylate]	4000
CCOC(=O)C12CC(C3C(=O)N(c4ncc(Cl)cc4F)CC(=O)N3Cc3ccc(C(F)(F)F)cc3)(C1)C2 (stereo not drawn) [Compound 782, ethyl 3-(4-(5-chloro-3-fluoropyridin-2-yl)-3,6-dioxo-1-(4-(trifluoro-methyl)benzyl)piperazin-2-yl)bicyclo[1.1.1]pentane-1-carboxylate]	3600
NC(=O)C12CC(C3C(=O)N(c4ncc(Cl)cc4F)CC(=O)N3Cc3ccc(C(F)(F)F)cc3)(C1)C2 (stereo not drawn) [Compound 783, 3-(4-(5-chloro-3-fluoro-pyridin-2-yl)-3,6-dioxo-1-(4-(trifluoromethyl)-benzyl)piperazin-2-yl)bicyclo[1.1.1]pentane-1-carboxamide]	3080
O=C1C(C23CC(CO)(C2)C3)N(Cc2ccc(C(F)(F)F)cc2)C(=O)CN1c1ncc(Cl)cc1F (stereo not drawn) [Compound 784, 1-(5-chloro-3-fluoropyridin-2-yl)-3-(3-(hydroxymethyl)bicyclo[1.1.1]pentan-1-yl)-4-(4-(trifluoromethyl)benzyl)piperazine-2,5-dione]	6800
CC(=O)N1CC2(C1)C(=O)N(c1ccc(Cl)cc1F)CC(=O)N2Cc1ccc(F)cc1 [Compound 785, 2-acetyl-8-(4-chloro-2-fluorophenyl)-5-(4-fluorobenzyl)-2,5,8-triazaspiro[3.5]nonane-6,9-dione]	5000
NC(=O)C12CC(C3C(=O)N(c4ncc(Cl)cc4F)CC(=O)N3Cc3ccc(C(F)F)cc3)(C1)C2 (stereo not drawn) [Compound 790, 3-(4-(5-chloro-3-fluoro-pyridin-2-yl)-1-(4-(difluoromethyl)benzyl)-3,6-dioxopiperazin-2-yl)bicyclo[1.1.1]pentane-1-carboxamide]	4900
NC(=O)C12CC(C3C(=O)N(c4ncc(Cl)cc4F)CC(=O)N3Cc3ccc(F)cc3)(C1)C2 (stereo not drawn) [Compound 791, 3-(4-(5-chloro-3-fluoro-pyridin-2-yl)-1-(4-fluoro-benzyl)-3,6-dioxopiperazin-2-yl)bicyclo[1.1.1]pentane-1-carboxamide]	2700
Cc1ccc(CN2C(=O)CN(c3ncc(Cl)cc3F)C(=O)C2C23CC(C(N)=O)(C2)C3)cc1 (stereo not drawn) [Compound 792, 3-(4-(5-chloro-3-fluoro-pyridin-2-yl)-1-(4-methyl-benzyl)-3,6-dioxopiperazin-2-yl)bicyclo[1.1.1]pentane-1-carboxamide]	3800
O=C1CN(c2ccc(Cl)cc2F)C(=O)C2(COC2)N1Cc1ccc(F)cc1 [Compound 799, 8-(4-chloro-2-fluoro-phenyl)-5-(4-fluorobenzyl)-2-oxa-5,8-diazaspiro-[3.5]nonane-6,9-dione]	3900
O=C1CN(c2ncc(Cl)cc2F)C(=O)C2(CC3(COC3)C2)N1Cc1ccc(C(F)(F)F)cc1 [Compound 813, 10-(5-chloro-3-fluoro-pyridin-2-yl)-7-(4-(trifluoro-methyl)benzyl)-2-oxa-7,10-diazadispiro-[3.1.56.14]dodecane-8,11-dione]	400
O=C1CN(c2ncc(Cl)cc2F)C(=O)C2(CC3(COC3)C2)N1Cc1ccc(C(F)F)cc1 [Compound 814, 10-(5-chloro-3-fluoro-pyridin-2-yl)-7-(4-(difluoromethyl)benzyl)-2-oxa-7,10-diazadispiro-[3.1.56.14]dodecane-8,11-dione]	800
O=C1CN(c2ncc(Cl)cc2F)C(=O)C2(CC3(COC3)C2)N1Cc1ccc(F)cc1 [Compound 815, 10-(5-chloro-3-fluoro-pyridin-2-yl)-7-(4-Fluorobenzyl)-2-oxa-7,10-diazadispiro-[3.1.56.14]dodecane-8,11-dione]	700
Cc1ccc(CN2C(=O)CN(c3ncc(Cl)cc3F)C(=O)C23CC2(COC2)C3)cc1 [Compound 816, 10-(5-chloro-3-fluoro-pyridin-2-yl)-7-(4-methyl-benzyl)-2-oxa-7,10-diazadispiro[3.1.56.14]-dodecane-8,11-dione]	900
NC(=O)C12CC([C@H]3C(=O)N(c4ncc(Cl)cc4F)CC(=O)N3Cc3ccc(C(F)F)cc3)(C1)C2 [Compound 821, (S)-3-(4-(5-chloro-3-fluoropyridin-2-yl)-3,6-dioxo-1-(4-(difluoro-methyl)benzyl)piperazin-2-yl)bicyclo[1.1.1]pentane-1-carboxamide]	2100
NC(=O)C12CC([C@@H]3C(=O)N(c4ncc(Cl)cc4F)CC(=O)N3Cc3ccc(C(F)F)cc3)(C1)C2 [Compound 822, (R)-3-(4-(5-chioro-3-fluoropyridin-2-yl)-3,6-dioxo-1-(4-(difluoro-methyl)benzyl)piperazin-2-yl)bicyclo[1.1.1]pentane-1-carboxamide]	>39000
Cc1ccc(CN2C(=O)CN(c3ncc(Cl)cc3F)C(=O)[C@@H]2C23CC(C(N)=O)(C2)C3)cc1 [Compound 823, (S)-3-(4-(5-chloro-3-fluoropyridin-2-yl)-1-(4-methylbenzyl)-3,6-dioxopiperazin-2-yl)bicyclo[1.1.1]pentane-1-carboxamide]	2300
Cc1ccc(CN2C(=O)CN(c3ncc(Cl)cc3F)C(=O)[C@H]2C23CC(C(N)=O)(C2)C3)cc1 [Compound 824, (R)-3-(4-(5-chloro-3-fluoropyridin-2-yl)-1-(4-methylbenzyl)-3,6-dioxopiperazin-2-yl)-bicyclo[1.1.1]pentane-1-carboxamide]	>39000
CC(=O)N1CC2(C1)CC1(C2)C(=O)N(c2ncc(Cl)cc2F)CC(=O)N1Cc1ccc(C(F)(F)F)cc1 [Compound 825, 2-acetyl-10-(5-chloro-3-fluoropyridin-2-yl)-7-(4-(trifluoromethyl)benzyl)-2,7,10-triazadispiro-[3.1.56.14]dodecane-8,11-dione]	700
CC(=O)N1CC2(C1)CC1(C2)C(=O)N(c2ncc(Cl)cc2F)CC(=O)N1Cc1ccc(C(F)F)cc1 [Compound 826, 2-acetyl-10-(5-chloro-3-fluoropyridin-2-yl)-7-(4-(difluoromethyl)benzyl)-2,7,10-triazadispiro-[3.1.56.14]dodecane-8,11-dione]	1260
CC(=O)N1CC2(C1)CC1(C2)C(=O)N(c2ncc(Cl)cc2F)CC(=O)N1Cc1ccc(F)cc1 [Compound 827, 2-acetyl-10-(5-chloro-3-fluoropyridin-2-yl)-7-(4-fluorobenzyl)-2,7,10-triazadispiro[3.1.56.14]-dodecane-8,11-dione]	2680
O=CN1CC2(C1)CC1(C2)C(=O)N(c2ncc(Cl)cc2F)CC(=O)N1Cc1ccc(F)cc1 [Compound 828, 10-(5-chloro-3-fluoro-pyridin-2-yl)-7-(4-fluoro-benzyl)-8,11-dioxo-2,7,10-triazadispiro[3.1.56.14]-dodecane-2-carbaldehyde]	1370
Cc1ccc(CN2C(=O)CN(c3ncc(Cl)cc3F)C(=O)C23CC2(CN(C=O)C2)C3)cc1 [Compound 830, 10-(5-chloro-3-fluoro-pyridin-2-yl)-7-(4-methyl-benzyl)-8,11-dioxo-2,7,10-triazadispiro[3.1.56.14]-dodecane-2-carbaldehyde]	1750
CC(=O)N1CC2(C1)CC1(C2)C(=O)N(c2ncc(Cl)cc2F)CC(=O)N1Cc1ccc(Cl)cc1 [Compound 831, 2-acetyl-10-(5-chloro-3-fluoropyridin-2-yl)-7-(4-chlorobenzyl)-2,7,10-triazadispiro[3.1.56.14]-dodecane-8,11-dione]	530
